Measured values as given in patent publication US10077246B2, “Tricyclic prodrugs” (Glactone Pharma Development AB, priority 2014, dated 2018).

Columns and labels:
[1] = Pharmacokinetic (PK) study in mice, oral dosing, galiellalactone quantified in plasma; assay type: in vivo; conditions: for AUC 0-t / AUC 0-∞ / plasma exposure of galiellalactone compared to oral administration of galiellalactone itself (in words): oral 10 mg/kg; for AUC 0-t / AUC 0-∞: galiellalactone (GL) in plasma; for AUC 0-t: 0 minutes to last quantifiable data point; for AUC 0-∞: extrapolated to infinity
Description: The usefulness of the compounds, as defined in the embodiments herein, as prodrugs to enhance the plasma exposure of tricyclic compounds that may be used treating, revoking, mitigating, alleviating and/or preventing different forms of cancer, were evaluated in an in vivo pharmacokinetic (PK) study in mice.
Doses of the test items were prepared at a drug concentration of 0.5 mg/mL in 5% DMSO in 50 mM citrate buffer (citric acid/sodium citrate), pH 4.0.
Oral doses were administered in a volume of 20 mL/kg (10 mg/kg) to groups of 24 mice and blood samples taken, under terminal barbiturate anaesthesia, at eight time-points out to 8 hours post-dose (n=3 mice per time-point).
Blood samples were transferred to tubes containing EDTA as anticoagulant and, as soon as practicable after collection, samples were centrifuged to yield plasma which was immediately frozen awaiting analysis. Following blood collection, brains were removed from all animals for possible future analysis and immediately frozen by immersion in liquid nitrogen. All samples were analyzed using LC-MS/MS.
Plasma proteins were precipitated and compounds extracted by the addition of three volumes of acetonitrile containing analytical internal standard (reserpine). Samples were centrifuged for 30 minutes at 3452 g in a Sorvall bench centrifuge and the supernatant fractions removed for MS analysis.
Quantification of the active compound e.g. galiellalactone, was by extrapolation from calibration lines prepared in control mouse plasma and analyzed concurrently with experimental samples and Quality Control (QC) samples prepared in control mouse plasma. If the compounds were instable in mouse plasma, calibration lines were constructed in water for qualitative MS comparison with any signal seen in plasma samples.
Pharmacokinetic parameters of the test items were determined using the mean data from the n=3 mice at each time-point. Non-compartmental analysis was performed using the software package PK Solutions 2.0 from Summit Research Services. AUC values were calculated by the trapezoidal method.
AUC 0-t: Area under the plasma drug concentration/time curve from 0 minutes to last quantifiable data point
AUC 0-∞: Area under the curve from 0 minutes extrapolated to infinity

[2] = Chemical stability in phosphate buffered saline; assay type: physicochemical; conditions: for chemical stability in 0.1 M PBS (in words): 0.1 M PBS (pH 7.4); for half-life at 10 μM: 0.1 M phosphate buffered saline, 0.1 M PBS pH 7.4, 10 μM, room temperature
Description: The chemical stability of test compounds was determined in 96-well plate format. Compounds in DMSO stock solutions were diluted (n=2) in the required matrix (0.1 M phosphate buffered saline) to a concentration of 10 μM (2% DMSO final) and mixed at room temperature on an orbital shaker, with aliquots removed at 2 and 4 hours for testing. DMSO, containing an analytical internal standard, was added to the aliquots, vortex-mixed and analysed immediately by LC-MS/MS. Equivalent T=0 samples were also included, with sample preparation staggered to allow sequential injections of timed aliquots and the T=0 samples.
The amount of compound remaining (expressed as %) was determined from the MS response in each sample relative to that in the T=0 samples (normalized for internal standard).
Ln plots of the % remaining were used to determine the half-life of compound disappearance from the relationship:
t1/2 (min)=−0.693/λ, where λ is the slope of the Ln concentration vs time curve.

[3] = tested on: DU145; experiment: WST-1 cell proliferation assay, DU145; assay type: cell-based; conditions: DU145 (pSTAT3 +), 72 hours/10 μM, percent of untreated control cells
Description: (§1) The functional activity of example 15 in comparison to galiellalactone was evaluated using WST-1 proliferation assay (J. Biol. Chem. 2014, 289:15969-15978) on DU145, PC-3, LNCaP or IL-6 stimulated LNCaP. The cells were cultured in 96-well plates (2000 cells/well in 200 μl of medium) and allowed to set for 24 h. The cells were treated with 10 μM of 4α-fluoro-galiellalactone or galiellalactone for 72 h. Samples were made in triplicate. 20 μl WST-1 solution (Roche Applied Science) was added per well and incubated at 37° C. for 4 h. The absorbance of each well was measured using a scanning multi-well spectrophotometer, ELISA reader at a wavelength of 450 nm and reference wavelength of 690 nm. The results presented in Table 3 below are presented as percent of untreated control cells.

[4] = tested on: PC-3; experiment: WST-1 cell proliferation assay, PC-3; assay type: cell-based; conditions: PC3 (pSTAT3 −), 72 hours/10 μM, percent of untreated control cells
Description: as §1

[5] = tested on: LNCaP; experiment: WST-1 cell proliferation assay, LNCaP; assay type: cell-based; conditions: LNCaP (pSTAT3 −), 72 hours/10 μM, percent of untreated control cells
Description: as §1

[6] = tested on: IL-6 stimulated LNCaP; experiment: WST-1 cell proliferation assay, IL-6 stimulated LNCaP; assay type: cell-based; conditions: LNCaP-IL6 (pSTAT3 +), 72 hours/10 μM, percent of untreated control cells
Description: as §1

[7] = tested on: STAT3; experiment: WST-1 proliferation, pSTAT3 negative versus pSTAT3 positive cell lines; assay type: cell-based; conditions: 10 μM; pSTAT3 negative PC3, LNCaP versus pSTAT3 positive cells
Description: as §1
On the other hand, the pSTAT3 positive cells are equally sensitive to 4α-fluoro-galiellalactone and galiellalactone.

[8] = tested on: IL-6/STAT3 signaling; conditions: cited from earlier work
[9] = tested on: STAT3 expressing DU145 prostate cancer cells; conditions: Prostate 68:269-280 (2008); cited from earlier work

| Compound | AUC 0-t [1] [μg GL/mL•min] | AUC 0-∞ [1] [μg GL/mL•min] | half-life at 10 μM [2] [min] | further results |
| --- | --- | --- | --- | --- |
| CCCCS[C@H]1C2C(=O)O[C@@H]3CC[C@H](C[C@@H]1C)[C@]23O (stereo partly drawn) [Example 1, 3β-(Butyllthio)-2aβ,3-dihydrogaliellalactone] | 85 | 102 |  |  |
| C[C@H]1C[C@H]2CC[C@H]3OC(=O)C([C@@H]1Sc1ccccc1)[C@@]23O (stereo partly drawn) [Example 2, 3β-(Phenylthio)-2aβ,3-dihydrogaliellalactone] | 36 | 41 |  |  |
| COC(=O)[C@H](CS[C@H]1C2C(=O)O[C@@H]3CC[C@H](C[C@@H]1C)[C@]23O)NC(C)=O (stereo partly drawn) [Example 3, 3β-(N-acetyl L-cysteinemethyl ester)-2aβ,3-dihydrogaliellalactone] | 117 | 120 | > 150 | plasma exposure of galiellalactone compared to oral administration of galiellalactone itself (in words) [1]: significantly improve; chemical stability in 0.1 M PBS (in words) [2]: chemically stable |
| CCOC(=O)[C@H](CS[C@H]1C2C(=O)O[C@@H]3CC[C@H](C[C@@H]1C)[C@]23O)NC(C)=O (stereo partly drawn) [Example 4, 3β-(N-acetyl L-cysteineethyl ester)-2aβ,3-dihydrogaliellalactone] | 20 | 22 |  |  |
| COC(=O)[C@H](CS[C@H]1C2C(=O)O[C@@H]3CC[C@H](C[C@@H]1C)[C@]23O)NC(=O)C(C)C (stereo partly drawn) [Example 5] | 15 | 21 | > 138 |  |
| COC(=O)[C@H](CS[C@H]1C2C(=O)O[C@@H]3CC[C@H](C[C@@H]1C)[C@]23O)NC(=O)OC(C)(C)C (stereo partly drawn) [Example 6, 3β-(N-(tert-butylcarbonate)-L-cysteinemethyl ester)-2aβ,3-dihydrogaliellalactone] | 11 | 17 | > 150 |  |
| CC(=O)N[C@@H](CS[C@H]1C2C(=O)O[C@@H]3CC[C@H](C[C@@H]1C)[C@]23O)C(N)=O (stereo partly drawn) [Example 7, 3β-(N-acetyl L-cysteine amide)-2aβ,3-dihydrogaliellalactone] |  |  | > 150 |  |
| C[C@H]1C[C@H]2CC[C@H]3OC(=O)C([C@@H]1SCCS(=O)(=O)[O-])[C@@]23O.[Na+] (stereo partly drawn) [Example 8, 3β-(ethyl sulphonate)-2aβ,3-dihydrogaliellalactone sodium] |  |  | > 150 |  |
| C[C@H]1C[C@H]2CC[C@H]3OC(=O)C([C@@H]1SCC(NC(=O)CCC(N)C(=O)O)C(=O)NCC(=O)O)[C@@]23O (stereo partly drawn) [Example 9, 3β-(glutathione)-2aβ,3-dihydrogaliellalactone] |  |  | > 150 |  |
| COC(=O)[C@H](CCS[C@H]1C2C(=O)O[C@@H]3CC[C@H](C[C@@H]1C)[C@]23O)NC(C)=O (stereo partly drawn) [Example 12, 3β-(N-acetyl-L-homocysteinemethyl ester)-2aβ,3-dihydrogaliellalactone] | 150 | 155 |  |  |
| COC(=O)[C@H](CS[C@H]1C2C(=O)O[C@@H]3CC[C@H](C[C@@H]1C)[C@]23O)NC(=O)c1ccccc1F (stereo partly drawn) [Example 13, 3β-(N-(2-fluorobenzoyl)-L-cysteinemethyl ester)-2aβ,3-dihydrogaliellalactone] | 7.8 | 11 |  |  |
| COC(=O)[C@H](CS[C@H]1C2C(=O)O[C@@H]3CC[C@H](C[C@@H]1C)[C@]23O)NC(=O)[C@@H](N)C(C)C (stereo partly drawn) [Example 14, 3β-(N-(L-valine)-L-cysteinemethyl ester)-2aβ,3-dihydrogaliellalactone] | 97 | 101 |  | chemical stability in 0.1 M PBS (in words) [2]: chemically stable |
| C[C@@]1(F)C=C2C(=O)O[C@@H]3CC[C@H](C1)[C@]23O [Example 15, 4α-fluoro-galiellalactone] |  |  |  | % Remaining Proliferation [3]: 16%; % Remaining Proliferation [4]: 68%; % Remaining Proliferation [5]: 105%; % Remaining Proliferation [6]: 20%; selectivity for STAT3 compared with galiellalactone (in words) [7]: significantly more selective |
| C[C@@H]1C=C2C(=O)O[C@@H]3CC[C@H](C1)[C@]23O [Galiellalactone, (−)-Galiellalactone, reference compound] | 5 | 6 |  | AUC(0-inf) ([1]; mouse, oral administration 10 mg/kg, plasma galiellalactone): 95 ng·h/mL; % Remaining Proliferation [3]: 18%; % Remaining Proliferation [4]: 31%; % Remaining Proliferation [5]: 77%; % Remaining Proliferation [6]: 17%; inhibition of IL-6/STAT3 signaling [8]: submicromolar; proliferation of DU145 prostate cancer cells (in words) [9]: inhibits the proliferation |
| C[C@H]1C[C@H]2CC[C@H]3OC(=O)C([C@@H]1N1CCCC1)[C@@]23O.Cl (stereo partly drawn) [drawing 42, 3β-(N-pyrrolidine)-2aβ,3-dihydrogaliellalactone, reference compound] | 2.2 | 2.5 |  | plasma exposure of galiellalactone compared to oral administration of galiellalactone itself (in words) [1]: do not increase the AUC; chemical stability in 0.1 M PBS (in words) [2]: very unstable |
| C[C@H]1C[C@H]2CC[C@H]3OC(=O)C([C@@H]1N1CCCC1)[C@@]23O.Cl (stereo partly drawn) [drawing 45, reference compound] |  |  | 18 |  |
| COC(=O)C(N)CS[C@H]1C2C(=O)O[C@@H]3CC[C@H](C[C@@H]1C)[C@]23O (stereo partly drawn) [reference compound] |  |  | 22 |  |
| C[C@H]1C[C@H]2CC[C@H]3OC(=O)C([C@@H]1SCC(N)C(=O)O)[C@@]23O (stereo partly drawn) [reference compound] |  |  | 14 |  |
